Results from article PMC4640066 (Nature Communications, 2015).

Target: T1, γ-TuSC (Saccharomyces cerevisiae, UniProt P53378)
T1 construct: made in house; host or cells: HighFive insect cells
T1 sequence (P53378 1-473): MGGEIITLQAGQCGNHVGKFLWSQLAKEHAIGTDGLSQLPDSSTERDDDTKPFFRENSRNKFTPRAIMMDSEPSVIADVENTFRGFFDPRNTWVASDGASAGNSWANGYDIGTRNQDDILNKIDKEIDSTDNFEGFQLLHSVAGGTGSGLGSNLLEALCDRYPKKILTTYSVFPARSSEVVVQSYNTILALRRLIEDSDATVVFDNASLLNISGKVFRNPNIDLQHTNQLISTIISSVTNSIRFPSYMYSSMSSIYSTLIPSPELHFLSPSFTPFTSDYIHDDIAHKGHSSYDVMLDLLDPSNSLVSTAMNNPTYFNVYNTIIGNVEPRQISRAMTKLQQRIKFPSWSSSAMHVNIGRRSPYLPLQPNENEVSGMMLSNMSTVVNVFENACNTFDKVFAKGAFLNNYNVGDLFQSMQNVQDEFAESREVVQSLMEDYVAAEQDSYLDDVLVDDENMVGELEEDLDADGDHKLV
T1 sequence (P38863 1-823 partner): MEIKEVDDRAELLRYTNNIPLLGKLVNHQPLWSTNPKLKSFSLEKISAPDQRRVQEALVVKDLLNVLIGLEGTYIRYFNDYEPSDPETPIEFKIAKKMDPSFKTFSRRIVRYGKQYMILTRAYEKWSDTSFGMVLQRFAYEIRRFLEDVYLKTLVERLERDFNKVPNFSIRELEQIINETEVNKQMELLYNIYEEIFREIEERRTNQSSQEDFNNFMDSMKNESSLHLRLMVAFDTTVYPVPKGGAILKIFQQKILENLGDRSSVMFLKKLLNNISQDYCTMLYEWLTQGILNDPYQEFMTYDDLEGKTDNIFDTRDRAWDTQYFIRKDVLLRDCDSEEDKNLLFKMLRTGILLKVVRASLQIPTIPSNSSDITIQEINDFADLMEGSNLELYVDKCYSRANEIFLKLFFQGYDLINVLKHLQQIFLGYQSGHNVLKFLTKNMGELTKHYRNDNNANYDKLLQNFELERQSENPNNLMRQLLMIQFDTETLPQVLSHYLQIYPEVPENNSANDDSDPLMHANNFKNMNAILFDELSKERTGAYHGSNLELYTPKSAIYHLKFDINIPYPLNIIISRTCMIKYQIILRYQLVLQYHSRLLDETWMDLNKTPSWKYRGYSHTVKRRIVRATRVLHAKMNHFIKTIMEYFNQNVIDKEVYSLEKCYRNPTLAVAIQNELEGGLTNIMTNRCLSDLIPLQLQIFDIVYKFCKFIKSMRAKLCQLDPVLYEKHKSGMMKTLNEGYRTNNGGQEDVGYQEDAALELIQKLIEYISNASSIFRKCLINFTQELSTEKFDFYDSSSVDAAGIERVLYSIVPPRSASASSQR
T1 sequence (P53540 1-846 partner): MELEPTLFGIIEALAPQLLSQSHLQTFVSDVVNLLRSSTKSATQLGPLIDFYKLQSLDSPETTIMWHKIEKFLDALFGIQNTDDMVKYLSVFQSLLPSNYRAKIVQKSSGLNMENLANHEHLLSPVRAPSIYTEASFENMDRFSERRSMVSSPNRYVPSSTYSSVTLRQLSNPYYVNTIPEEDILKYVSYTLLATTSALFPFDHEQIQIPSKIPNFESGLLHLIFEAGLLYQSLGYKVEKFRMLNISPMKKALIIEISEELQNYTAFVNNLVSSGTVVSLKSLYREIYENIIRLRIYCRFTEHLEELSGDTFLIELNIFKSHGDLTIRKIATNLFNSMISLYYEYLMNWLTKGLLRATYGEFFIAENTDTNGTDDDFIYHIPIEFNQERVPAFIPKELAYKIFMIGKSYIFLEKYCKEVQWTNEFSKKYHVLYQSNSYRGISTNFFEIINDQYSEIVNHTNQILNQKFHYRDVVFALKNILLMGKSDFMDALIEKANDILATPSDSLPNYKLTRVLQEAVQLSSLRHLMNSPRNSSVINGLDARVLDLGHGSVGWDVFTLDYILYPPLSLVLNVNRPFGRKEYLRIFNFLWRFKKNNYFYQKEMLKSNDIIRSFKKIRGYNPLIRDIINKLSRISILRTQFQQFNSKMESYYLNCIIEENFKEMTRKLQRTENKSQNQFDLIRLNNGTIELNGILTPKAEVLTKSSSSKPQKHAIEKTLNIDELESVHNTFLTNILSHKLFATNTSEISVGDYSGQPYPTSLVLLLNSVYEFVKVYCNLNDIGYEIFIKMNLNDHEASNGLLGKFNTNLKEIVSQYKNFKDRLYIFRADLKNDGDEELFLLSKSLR
Assay: γ-TuSC capping to paclitaxel-stabilized MTs
Type: biochemical
Settings: 50 μM
Method: γ-TuSC was diluted in RB buffer containing 10 μM paclitaxel to reach a final protein concentration of 0.5 μM and incubated with 50 μM of gatastatin for 30 min at 25 °C. Polymerized MTs were prepared by incubation of ∼5 mg ml^−1 α/β-tubulin for 30 min at 37 °C with 1 mM GTP; then paclitaxel was added (final 10 μM). GTP was removed from paclitaxel-stabilized MTs with ultracentrifugation at 240,000g for 10 min at 25 °C. Paclitaxel-stabilized MTs were added to γ-TuSC (final ∼1.2 mg ml^−1). Next, γ-TuSC was incubated with paclitaxel-stabilized MTs for 30 min; MTs and MT-bound γ-TuSC were collected with ultracentrifugation at 240,000g for 10 min at 25 °C and finally placed on poly-L-lysine-coated coverslips. After incubation for 15 min, coverslips were immediately fixed with cold MeOH (−20 °C). Coverslips were blocked with PBS containing 0.5% bovine serum albumin and were incubated with anti-α-tubulin (1:200 dilution, MBL, Cat# PM054) and anti-penta His (1:200 dilution, Qiagen, Cat# 34660) antibodies. After staining with Alexa^488-conjugated anti-rabbit IgG (1:2000 dilution, Invitrogen) and Alexa^568-conjugated anti-mouse IgG (1:2000 dilution, Invitrogen), the coverslips were washed four times with PBS and mounted with PBS. γ-TuSC bound to MTs was observed under a LAS AF 6000 fluorescence microscope (Leica Microsystems, Wetzlar, Germany).

Effect on γ-TuSC binding to MT ends: impaired γ-TuSC binding to MT ends
Structure (SMILES): COc1cc2c(=O)c(-c3cc(OC)c4c(c3OC)OCO4)coc2cc1OCc1ccccc1 [Gatastatin, O^7-demethylbenzyl AG1]
